Results from publication PMC5529524, “2-Oxoadenosine induces cytotoxicity through intracellular accumulation of 2-oxo-ATP and depletion of ATP but not via the p38 MAPK pathway” (Scientific Reports, 2017).

Tests used:
Format in all cases: biochemical
[1] = target: T1, adenosine kinase (recombinant human ADK, rhADK) (Homo sapiens, UniProt P55263); assay: in vitro rhADK phosphorylation assay, HPLC of monophosphate product
[2] = target: T1, adenosine kinase (recombinant human ADK, rhADK); assay: in vitro rhADK phosphorylation assay, HPLC of 2-oxo-AMP
[3] = target: T1, adenosine kinase (recombinant human ADK, rhADK); assay: in vitro rhADK enzyme assay, HPLC of 2-oxo-AMP product (IC50 […] with Ado as substrate)

T1 sequence (P55263 2-362): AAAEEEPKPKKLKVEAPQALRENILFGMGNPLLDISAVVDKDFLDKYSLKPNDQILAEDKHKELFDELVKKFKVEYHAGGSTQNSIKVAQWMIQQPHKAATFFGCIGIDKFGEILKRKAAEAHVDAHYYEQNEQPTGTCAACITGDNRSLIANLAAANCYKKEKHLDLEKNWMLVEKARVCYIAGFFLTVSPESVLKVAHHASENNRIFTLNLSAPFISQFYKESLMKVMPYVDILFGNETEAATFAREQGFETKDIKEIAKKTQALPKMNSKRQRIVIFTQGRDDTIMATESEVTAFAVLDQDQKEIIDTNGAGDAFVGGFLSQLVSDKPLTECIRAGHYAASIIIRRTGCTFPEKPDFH

Structure (SMILES): Nc1nc(Cl)nc2c1ncn2[C@@H]1O[C@H](CO)[C@@H](O)[C@H]1O [2-chloroadenosine]
- in vitro rhADK phosphorylation assay, HPLC of monophosphate product [1]: Chromatograms of the reaction products of ADK with 2-Cl-Ado or AICAR showed novel peaks

Structure (SMILES): Nc1[nH]c(=O)nc2c1ncn2[C@@H]1O[C@H](CO)[C@@H](O)[C@H]1O [2-oxoadenosine, 1,2-Dihydro-2-oxoadenosine]
- in vitro rhADK phosphorylation assay, HPLC of 2-oxo-AMP [2]: Recombinant human ADK, ATP and nucleosides 2-oxo-Ado (a) or Ado (b) were reacted

Structure (SMILES): C[S+]([O-])c1ccc(-c2nc(-c3ccncc3)c(-c3ccc(F)cc3)[nH]2)cc1 (stereo not drawn) [SB203580]
- IC50 [3]: 8.6 µM
